Laboratory results taken from patent US12110299B2, “Thiazole derivatives and pharmaceutically acceptable salts thereof” (YUNGJIN PHARM. CO., LTD., priority 2018, dated 2024).

Tests used:
MDA-MB-468 cells = assay: Anti-proliferative effect on MDA-MB-468 cells, IC50 (MTT); assay type: cell-based; conditions: Homo sapiens, MDA-MB-468, 72 h
Experimental: The compounds of the present invention were tested at different concentrations (from 1000 nM to 1 nM) to assess their ability for inhibiting the proliferation of MDAMB-468 cells. Cells were cultivated in RPMI 1640 (Welgene)+10% FBS (Gibco)+1% penicillin/streptomycin (Gibco) and cultured at 37° C. in a humidified chamber in the presence of 5% C02.
MDA-MB-468 cells cultured in 96-well cell culture plates were treated with the compounds of the present invention and incubated for 72 hours.

HepG2 cells = assay: HepG2 cell viability assay (CCK-8); assay type: cell-based, human; conditions: Homo sapiens, HepG2, 72 h
Experimental: The ability to inhibit the proliferation of HepG2 cells, which are human hepatocellular carcinoma cells, was measured through the in vitro cell viability assay. Cells were cultured at 37° C. in a humidified condition in the presence of 5% CO2 using a culture medium of MEM (Welgene)+10% FBS (Gibco)+1% penicillin/streptomycin (Gibco). […] Cell viability was measured by CCK-8 method using tetrazolium salt, and the ability of the compounds according to the present invention to inhibit cancer cell proliferation was calculated.

CC(C(=O)Nc1ncc(C(F)(F)F)s1)c1cncc(-c2cnc(NC(=O)/C=C/CN3CCOCC3)cn2)c1 (centres unmarked) [Example 74, (E)-4-morpholino-N-(5-(5-(1-oxo-1-((5-(trifluoromethyl)thiazol-2-yl)amino)propan-2-yl)pyridin-3-yl)pyrazin-2-yl)but-2-enamide]
IC50 (MDA-MB-468 cells): 65 nM

C[C@H](C(=O)Nc1ncc(C(F)(F)F)s1)c1cccc(-c2cnc(NC(=O)/C=C/CN(C)C)cn2)c1 [Example 81, (S,E)-4-(dimethylamino)-N-(5-(3-(1-oxo-1-((5-(trifluoromethyl)thiazol-2-yl)amino)propan-2-yl)phenyl)pyrazin-2-yl)but-2-enamide]
IC50 (MDA-MB-468 cells): 39 nM
IC50 (HepG2 cells): 11 nM

C=CC(=O)Nc1ccc(-c2cncc(C(C)C(=O)Nc3ncc(C(F)(F)F)s3)c2)cn1 (centres unmarked) [Example 82, N-(5′-(1-oxo-1-((5-(trifluoromethyl)thiazol-2-yl)amino)propan-2-yl)-[3,3′-bipyridin]-6-yl)acrylamide]
IC50 (MDA-MB-468 cells): 32 nM
IC50 (HepG2 cells): 4 nM

CC(C(=O)Nc1ncc(C(F)(F)F)s1)c1cncc(-c2cnc(NC(=O)/C=C/CN3CC4CC3CO4)cn2)c1 (centres unmarked) [Example 83, (E)-4-(2-oxa-5-azabicyclo[2.2.1]heptan-5-yl)-N-(5-(5-(1-oxo-1-((5-(trifluoromethyl)thiazol-2-yl)amino)propan-2-yl)pyridin-3-yl)pyrazin-2-yl)but-2-enamide]
IC50 (MDA-MB-468 cells): 21 nM
IC50 (HepG2 cells): 3 nM

C=CC(=O)Nc1ncc(-c2cncc(C(C)C(=O)Nc3ncc(C(F)(F)F)s3)c2)cc1C#N (centres unmarked) [Example 88, N-(5-cyano-5′-(1-oxo-1-((5-(trifluoromethyl)thiazol-2-yl)amino)propan-2-yl)-[3,3′-bipyridin]-6-yl)acrylamide]
IC50 (MDA-MB-468 cells): 54 nM
IC50 (HepG2 cells): 9 nM

C[C@H](C(=O)Nc1ncc(C(F)(F)F)s1)c1cccc(-c2cnc(NC(=O)/C=C/CN3CCOCC3)cn2)c1 [Example 92, (S,E)-4-morpholino-N-(5-(3-(1-oxo-1-((5-(trifluoromethyl)thiazol-2-yl)amino)propan-2-yl)phenyl)pyrazin-2-yl)but-2-enamide]
IC50 (MDA-MB-468 cells): 52 nM
IC50 (HepG2 cells): 74 nM

C[C@H](C(=O)Nc1ncc(Cl)s1)c1cccc(-c2cnc(NC(=O)/C=C/CN(C)C)cn2)c1 [Example 93, (S,E)-N-(5-(3-(1-((5-chlorothiazol-2-yl)amino)-1-oxopropan-2-yl)phenyl)pyrazin-2-yl)-4-(dimethylamino)but-2-enamide]
IC50 (MDA-MB-468 cells): 38 nM
IC50 (HepG2 cells): 21 nM

C[C@H](C(=O)Nc1ncc(Cl)s1)c1cccc(-c2cnc(NC(=O)/C=C/CN3CC4CC3CO4)cn2)c1 (stereo partly drawn) [Example 94, (E)-4-(2-oxa-5-azabicyclo[2.2.1]heptan-5-yl)-N-(5-(3-((S)-1-((5-chlorothiazol-2-yl)amino)-1-oxopropan-2-yl)phenyl)pyrazin-2-yl)but-2-enamide]
IC50 (MDA-MB-468 cells): 59 nM
IC50 (HepG2 cells): 25 nM

C[C@H](C(=O)Nc1ncc(C(F)(F)F)s1)c1cccc(-c2cnc(NC(=O)/C=C/CN3CC4CC3CO4)cn2)c1 (stereo partly drawn) [Example 96, (E)-4-(2-oxa-5-azabicyclo[2.2.1]heptan-5-yl)-N-(5-(3-((S)-1-oxo-1-((5-(trifluoromethyl)thiazol-2-yl)amino)propan-2-yl)phenyl)pyrazin-2-yl)but-2-enamide]
IC50 (MDA-MB-468 cells): 68 nM
IC50 (HepG2 cells): 19 nM

C[C@H](C(=O)Nc1ncc(C(F)(F)F)s1)c1cccc(-c2cnc(NC(=O)/C=C/CN(C)C)c(F)c2)c1 [Example 99, (S,E)-4-(dimethylamino)-N-(3-fluoro-5-(3-(1-oxo-1-((5-(trifluoromethyl)thiazol-2-yl)amino)propan-2-yl)phenyl)pyridin-2-yl)but-2-enamide]
IC50 (MDA-MB-468 cells): 23 nM
IC50 (HepG2 cells): 5 nM

COc1cc(-c2cccc([C@H](C)C(=O)Nc3ncc(C(F)(F)F)s3)c2)cnc1NC(=O)/C=C/CN(C)C [Example 100, (S,E)-4-(dimethylamino)-N-(3-methoxy-5-(3-(1-oxo-1-((5-(trifluoromethyl)thiazol-2-yl)amino)propan-2-yl)phenyl)pyridin-2-yl)but-2-enamide]
IC50 (MDA-MB-468 cells): 56 nM
IC50 (HepG2 cells): 8 nM

C[C@H](C(=O)Nc1ncc(C(F)(F)F)s1)c1cccc(-c2cnc(NC(=O)/C=C/CN3CCCC3)cn2)c1 [Example 102, (S,E)-N-(5-(3-(1-oxo-1-((5-(trifluoromethyl)thiazol-2-yl)amino)propan-2-yl)phenyl)pyrazin-2-yl)-4-(pyrrolidin-1-yl)but-2-enamide]
IC50 (MDA-MB-468 cells): 57 nM
IC50 (HepG2 cells): 13 nM

C[C@H](C(=O)Nc1ncc(C(F)(F)F)s1)c1cccc(-c2cnc(NC(=O)/C=C/CN3CCC3)cn2)c1 [Example 103, (S,E)-4-(azetidin-1-yl)-N-(5-(3-(1-oxo-1-((5-(trifluoromethyl)thiazol-2-yl)amino)propan-2-yl)phenyl)pyrazin-2-yl)but-2-enamide]
IC50 (MDA-MB-468 cells): 68 nM
IC50 (HepG2 cells): 14 nM

C[C@H](C(=O)Nc1ncc(C2CCC2)s1)c1cccc(-c2cnc(NC(=O)/C=C/CN(C)C)cn2)c1 [Example 104, (S,E)-N-(5-(3-(1-((5-cyclobutylthiazol-2-yl)amino)-1-oxopropan-2-yl)phenyl)pyrazin-2-yl)-4-(dimethylamino)but-2-enamide]
IC50 (MDA-MB-468 cells): 44 nM
IC50 (HepG2 cells): 8 nM

CC(C(=O)Nc1ncc(C(F)(F)F)s1)c1cncc(-c2ccc(NC(=O)/C=C/CN(C)C)nc2)c1 (centres unmarked) [Example 107, (E)-4-(dimethylamino)-N-(5′-(1-oxo-1-((5-(trifluoromethyl)thiazol-2-yl)amino)propan-2-yl)-[3,3′-bipyridin]-6-yl)but-2-enamide]
IC50 (HepG2 cells): 3.1 nM

CC(C(=O)Nc1ncc(C(F)(F)F)s1)c1cncc(-c2cnc(NC(=O)/C=C/CN(C)C)c(C#N)c2)c1 (centres unmarked) [Example 108, (E)-N-(5-cyano-5′-(1-oxo-1-((5-(trifluoromethyl)thiazol-2-yl)amino)propan-2-yl)-[3,3′-bipyridin]-6-yl)-4-(dimethylamino)but-2-enamide]
IC50 (MDA-MB-468 cells): 31 nM
IC50 (HepG2 cells): 4.6 nM

COc1nc(-c2cccc([C@H](C)C(=O)Nc3ncc(C(F)(F)F)s3)c2)cnc1NC(=O)/C=C/CN(C)C [Example 109, (S,E)-4-(dimethylamino)-N-(3-methoxy-5-(3-(1-oxo-1-((5-(trifluoromethyl)thiazol-2-yl)amino)propan-2-yl)phenyl)pyrazin-2-yl)but-2-enamide]
IC50 (MDA-MB-468 cells): 31 nM
IC50 (HepG2 cells): 2.6 nM

C[C@H](C(=O)Nc1ncc(C(F)(F)F)s1)c1cccc(-c2cnc3c(c2)CCN3C(=O)/C=C/CN(C)C)c1 [Example 110, (S,E)-2-(3-(1-(4-(dimethylamino)but-2-enoyl)-2,3-dihydro-1H-pyrrolo[2,3-b]pyridin-5-yl)phenyl)-N-(5-(trifluoromethyl)thiazol-2-yl)propanamide]
IC50 (MDA-MB-468 cells): 74 nM
IC50 (HepG2 cells): 17.4 nM

C[C@H](C(=O)Nc1ncc(C(F)(F)F)s1)c1cccc(-c2cnc(NC(=O)/C=C/CN(C)C)c(C(F)(F)F)c2)c1 [Example 111, (S,E)-4-(dimethylamino)-N-(5-(3-(1-oxo-1-((5-(trifluoromethyl)thiazol-2-yl)amino)propan-2-yl)phenyl)-3-(trifluoromethyl)pyridin-2-yl)but-2-enamide]
IC50 (MDA-MB-468 cells): 32 nM
IC50 (HepG2 cells): 4 nM

Cc1cc(-c2cccc([C@H](C)C(=O)Nc3ncc(C(F)(F)F)s3)c2)cnc1NC(=O)/C=C/CN(C)C [Example 112, (S,E)-4-(dimethylamino)-N-(3-methyl-5-(3-(1-oxo-1-((5-(trifluoromethyl)thiazol-2-yl)amino)propan-2-yl)phenyl)pyridin-2-yl)but-2-enamide]
IC50 (MDA-MB-468 cells): 59 nM
IC50 (HepG2 cells): 8.7 nM

C[C@H](C(=O)Nc1ncc(C(F)(F)F)s1)c1cccc(-c2cnc(NC(=O)/C=C/CN(C)C)c(Cl)c2)c1 [Example 113, (S,E)-N-(3-chloro-5-(3-(1-oxo-1-((5-(trifluoromethyl)thiazol-2-yl)amino)propan-2-yl)phenyl)pyridin-2-yl)-4-(dimethylamino)but-2-enamide]
IC50 (MDA-MB-468 cells): 35 nM
IC50 (HepG2 cells): 4.2 nM

CCN(CC)C/C=C/C(=O)Nc1cnc(-c2cccc([C@H](C)C(=O)Nc3ncc(C(F)(F)F)s3)c2)cn1 [Example 114, (S,E)-4-(diethylamino)-N-(5-(3-(1-oxo-1-((5-(trifluoromethyl)thiazol-2-yl)amino)propan-2-yl)phenyl)pyrazin-2-yl)but-2-enamide]
IC50 (MDA-MB-468 cells): 56 nM
IC50 (HepG2 cells): 12 nM

C[C@H](C(=O)Nc1ncc(C(F)(F)F)s1)c1cccc(-c2cnc(NC(=O)/C=C/CN3CC[C@@H](F)C3)cn2)c1 [Example 115, (E)-4-((R)-3-fluoropyrrolidin-1-yl)-N-(5-(3-((S)-1-oxo-1-((5-(trifluoromethyl)thiazol-2-yl)amino)propan-2-yl)phenyl)pyrazin-2-yl)but-2-enamide]
IC50 (MDA-MB-468 cells): 75 nM
IC50 (HepG2 cells): 12 nM

COC[C@@H]1CCCN1C/C=C/C(=O)Nc1cnc(-c2cccc([C@H](C)C(=O)Nc3ncc(C(F)(F)F)s3)c2)cn1 [Example 118, (E)-4-((S)-2-(methoxymethyl)pyrrolidin-1-yl)-N-(5-(3-((S)-1-oxo-1-((5-(trifluoromethyl)thiazol-2-yl)amino)propan-2-yl)phenyl)pyrazin-2-yl)but-2-enamide]
IC50 (MDA-MB-468 cells): 47 nM

C[C@H](C(=O)Nc1ncc(C(F)(F)F)s1)c1cccc(-c2cnc(NC(=O)/C=C/CN3CCCCC3)cn2)c1 [Example 120, (S,E)-N-(5-(3-(1-oxo-1-((5-(trifluoromethyl)thiazol-2-yl)amino)propan-2-yl)phenyl)pyrazin-2-yl)-4-(piperidin-1-yl)but-2-enamide]
IC50 (MDA-MB-468 cells): 51 nM

C=CC(=O)Nc1ncc(-c2cccc([C@H](C)C(=O)Nc3ncc(C(F)(F)F)s3)c2)cc1C#N [Example 124, (S)-N-(3-cyano-5-(3-(1-oxo-1-((5-(trifluoromethyl)thiazol-2-yl)amino)propan-2-yl)phenyl)pyridin-2-yl)acrylamide]
IC50 (MDA-MB-468 cells): 40 nM
